# Values of other authors in patent US10196371B2, “Compounds for the treatment of HPV-induced carcinoma” (Åbo Akademi, priority 2014, dated 2019).
# Columns and labels:
# [1] = system: HPV16 positive cervical cancer cells
smiles,measurement,setting,value
C=C1C(=O)OC2/C=C(/C)CC/C=C(\C(=O)O)CC/C=C(\C)CCC12 (centres unmarked) [anisomelic acid],efficiency in inducing apoptosis,[1],good efficiency
same,protein level expression of E6 and E7,E6 and E7,inhibits
